Experimental data reported in paper PMC10218704, “A Novel Blood–Brain Barrier-Penetrating and Vascular-Targeting Chimeric Peptide Inhibits Glioma Angiogenesis” (International Journal of Molecular Sciences, 2023).
Ends that are not written are not given here.

Legend:
NRP-1 = test system: NRP-1; parameters: method as in 2 sources, ref 21 = [21]; PMID 17983687; doi:10.1016/j.peptides.2007.09.013; 21. Starzec A. Ladam P. Vassy R. Badache S. Bouchemal N. Navaza A. du Penhoat C.H. Perret G.Y. Structure-function analysis of the antiangiogenic ATWLPPR peptide inhibiting VEGF (165) binding to neurop ||| ref 36 = [36]; PMID 11327725; doi:10.1006/bbrc.2001.4790; 36. Jia H. Lohr M. Jezequel S. Davis D. Shaikh S. Selwood D. Zachary I. Cysteine-rich and basic domain HIV-1 Tat peptides inhibit angiogenesis and induce endothelial cell apoptosis Biochem. Biophys. R; conditions: C-terminal LPPR essential; cited from earlier work
HUVECs [1] = experiment: Cell proliferation assay (MTT); type: cell-based, human; conditions: 48 h, VEGF-A165 30 ng/mL, n = 3
Procedure: The anti-proliferative effect was evaluated by the MTT assay.
Briefly, HUVECs were seeded into 96-well plates (5 × 10^3 cells/well) and allowed to attach overnight. […] Then, 20 µL of MTT solution was added to each well and further cultured for 4 h under dark conditions. After removing the medium, 150 µL of DMSO was added to dissolve formazan crystals. The 96-well plates were shaken at a low speed for 10 min. The absorbance was measured at 490 nm using a Microplate Reader (Bio-Rad 680, Hercules, CA, USA).

red blood cells = experiment: Hemolysis assay; conditions: 2.5–640 μmol/L; 37 °C, 1 h; 540 nm; mouse red blood cells; n = 3
Procedure: The fresh blood of mice was centrifuged at 2000 r/min for 10 min, and the upper layer of serum was discarded, then mixed with normal saline and centrifuged at 2000 r/min for 10 min, repeated three times, and the supernatant was removed to obtain the lower layer of red blood cells. Then, 1 mL of red blood cells was diluted to 50 mL with normal saline. […] The samples were incubated at 37 °C for 1 h, centrifuged at 2000 r/min for 10 min, and photographed. Light absorption of samples was measured at 540 nm on a microplate reader.
Cell hemolysis rate (%) = (OD experimental group − negative control group)/(OD positive control group − negative control group) × 100%.

AKT = experiment: Western blot, phosphorylation of AKT; type: cell-based, human; conditions: 320 μmol/L, 90 min, VEGF-A165 30 ng/mL, HUVECs, vs control, AT7, TAT, n = 3
Procedure: (§1) For Western blotting analysis, HUVECs were seeded into 6-well culture plates at 3 × 10^5 cells/well and incubated overnight. […] Two control groups (F-12K medium in the absence or presence of VEGF-A165) were set. The cells were washed with cold PBS and lysed with lysis buffer (protease and phosphatase inhibitors) on the ice for 30 min, and then centrifuged at 4 °C for 15 min at 14,000 r/min. The supernatant was collected, and its total protein concentration was determined by the BCA protein assay kit. Equal amounts of proteins were separated by 10% SDS-PAGE gels and transferred to polyvinylidene difluoride (PVDF) membranes. After blocking with 5% non-fat milk for 1 h, the membranes were incubated with specific antibodies at 4 °C overnight. Then, the membranes were washed with TBST (Tris-Buffered Saline with 0.1% Tween 20) and incubated with horseradish peroxidase (HRP)-conjugated secondary antibody for 1 h at room temperature. The proteins on the membranes were visualized with enhanced chemiluminescence agents.

HUVECs [2] = experiment: Tube formation assay on Matrigel; type: cell-based, human; conditions: 160 μmol/L, VEGF-A165 30 ng/mL, 6 h, n = 3
Procedure: Matrigel was added to 96-well plates with 60 min of incubation at 37 °C for solidification. […] The tubular structures were observed under an inverted microscope and the total branching lengths were calculated by the ImageJ V 1.8.0 software.

[3] = test system: glioma blood vessels (CD31); experiment: CD31 immunohistochemical staining of glioma tissue (blood vessel density); type: in vivo, nude mice; conditions: 20 mg/kg/day i.v., 11 days; tissue at day 15; n = 3
Procedure: (§2) The orthotopic U87-mCherry-luc glioma-bearing nude mice were randomly assigned to 6 groups (n = 5) according to the bioluminescence intensity of glioma measured on day 4. […] The bioluminescence intensity was measured on days 4, 7, 11, and 14, respectively. Nude mice were weighed daily. On day 15, the mice were sacrificed, and the glioma-bearing brains were harvested. The brain tissues were fixed with 4.0% paraformaldehyde, embedded in paraffin, and cut into slices. The TUNEL staining and CD31 immunohistochemical staining were conducted according to standard histological procedures.

FAK = experiment: Western blot, phosphorylation of FAK; type: cell-based, human; conditions: 320 μmol/L, 90 min, VEGF-A165 30 ng/mL, HUVECs, vs control, AT7, TAT, n = 3
Procedure: as §1

HUVECs [4] = experiment: Wound healing assay (cell migration); type: cell-based, human; conditions: 160 μmol/L; VEGF-A165 30 ng/mL; at 24 h or 48 h after scratch; n = 3
Procedure: HUVECs were firstly seeded into 6-well culture plates (3 × 10^5 cells/well). Following overnight incubation, the monolayer HUVECs were scraped by pipette tips of 200 μL and washed by cold PBS. […] The cells were incubated for another 48 h. Images were captured at 0 h, 24 h, and 48 h using an inverted microscope. The cell migration rate was counted by the ImageJ software.

[5] = compared with TAT or AT7 alone; cited from earlier work
From the text: Intracranial delivery of therapeutic agents is primarily hindered by the BBB [24]. The intercellular tight junction caused by the BBB restricts the passive diffusion of almost all large-molecule and more than 98% of small-molecule drugs from peripheral blood circulation to the brain tissue. TAT ([…]), one of the most promising cationic cell-penetrating peptides (CPPs), has been widely applied in drug delivery due to its high efficiency to facilitate the tissue penetration and internalization of cargos and break through a variety of biological barriers, such as cell membrane ...

[6] = Body weight and physiological status of glioma-bearing nude mice; type: in vivo; conditions: 20 mg/kg/day i.v., 11 days
Procedure: as §2

HUVECs [7] = experiment: Hoechst 33,258 staining (apoptosis); type: cell-based, human; conditions: 320 μmol/L; 24 h
Procedure: HUVECs were seeded into 6-well culture plates (3 × 10^5 cells/well). […] After discarding the supernatant and washing with cold PBS, the cells were fixed in 4% paraformaldehyde and stained with Hoechst 33,258 for 10 min. Then, the cells were washed with cold PBS and observed using an inverted fluorescence microscope.

Molecule	effect on VEGF-A165 binding to NRP-1 (NRP-1)	inhibition rate on HUVECs' proliferation (HUVECs [1]; 320 μmol/L, MTT, 490 nm)	inhibition of HUVECs' proliferation (HUVECs [1]; 20-320 μmol/L, MTT)	inhibition rate compared with AT7, TAT, TAT+AT7 (HUVECs [1]; concentration higher than 40 μmol/L)	hemolysis (red blood cells)	hemolysis rate (red blood cells)	phosphorylation level of AKT (AKT)	formation of tubular structures (HUVECs [2])	total branch length of the tubular structure (HUVECs [2]; vs AT7, TAT, and TAT+AT7 groups)	blood vessel density (CD31) [3]	phosphorylation level of FAK (FAK)	migration rate (HUVECs [4])	BBB-penetration capability [5]	rate of weight loss [6]	toxicity and safety in nude mice ([6]; body weight and physiological status, 14th day)	number of apoptotic cells (Hoechst 33,258) (HUVECs [7])
ATWLPPR [AT7, ATWLPPR]	inhibitory effect of AT7 on VEGF-A165 binding to NRP-1															
CC(C)C[C@H](NC(=O)[C@H](Cc1c[nH]c2ccccc12)NC(=O)[C@@H](NC(=O)[C@H](C)NC(=O)[C@H](CS)NC(=O)[C@H](CCCNC(=N)N)NC(=O)[C@H](CCCNC(=N)N)NC(=O)[C@H](CCCNC(=N)N)NC(=O)[C@H](CCC(N)=O)NC(=O)[C@H](CCCNC(=N)N)NC(=O)[C@H](CCCNC(=N)N)NC(=O)[C@H](CCCCN)NC(=O)[C@H](CCCCN)NC(=O)[C@@H](N)CCCNC(=N)N)[C@@H](C)O)C(=O)N1CCC[C@H]1C(=O)N1CCC[C@H]1C(=O)N[C@@H](CCCNC(=N)N)C(=O)O [TAT-AT7]		more than 50%	significantly inhibit proliferation of HUVECs in a concentration-dependent manner	significantly higher than that of the AT7, TAT, and TAT+AT7 groups	did not cause obvious hemolysis	lower than 5%	significantly inhibited the phosphorylation level	significantly inhibit the formation of tubular structures in HUVECs	significantly reduced	significantly lower than that in the other groups	significantly inhibited the phosphorylation level	significantly lower than that of the control, AT7, TAT, and TAT+AT7 groups	stronger BBB-penetration capabilities	slower than that in the normal saline group	less toxicity and better safety for nude mice	significantly increased compared to the control, AT7, TAT, and TAT+AT7 groups
